In brackets after ≈: the same amount, converted by molar mass.
Legend:
Test in all cases: ≥ marks a high value that may be exact or a test limit, other limits are often not marked, values filed in µg/mL are converted to µM
Candida albicans 3153A = tested on: Candida albicans 3153A
Escherichia coli O157:H7 = tested on: Escherichia coli O157:H7
[1] = tested on: Staphylococcus aureus 1056
[2] = tested on: Bacillus licheniformis X39
[3] = tested on: Candida albicans ATCC 10231
[4] = tested on: Enterococcus faecalis 981
[5] = tested on: Escherichia coli ATCC 25922
[6] = tested on: Psychrobacter faecalis X29
[7] = tested on: Rhodococcus rhodochrous X15
Serratia rubidaea X01 = tested on: Serratia rubidaea X01
[8] = tested on: Staphylococcus aureus ATCC 25923
[9] = tested on: Staphylococcus carnosus KHS
Acinetobacter sp. = tested on: Acinetobacter sp.
[10] = tested on: Escherichia coli NCTC 10418
[11] = tested on: Escherichia coli NCTC 8007
Klebsiella aerogenes = tested on: Klebsiella aerogenes
Klebsiella sp. = tested on: Klebsiella sp.
Proteus mirabilis = tested on: Proteus mirabilis
Providencia stuartii = tested on: Providencia stuartii
[12] = tested on: Staphylococcus aureus NCTC 10571
Escherichia coli = tested on: Escherichia coli
Micrococcus luteus = tested on: Micrococcus luteus
Pseudomonas haemolytica = tested on: Pseudomonas haemolytica
[13] = tested on: Aspergillus niger ATCC 16404
Bacillus cereus = tested on: Bacillus cereus
[14] = tested on: Candida glabrata ATCC 15126
[15] = tested on: Enterococcus faecalis PCM 2673
[16] = tested on: Escherichia coli ATCC 23506
[17] = tested on: Klebsiella pneumoniae ATCC 700603
Leuconostoc lactis = tested on: Leuconostoc lactis
Listeria innocua = tested on: Listeria innocua
Pasteurella multocida = tested on: Pasteurella multocida
[18] = tested on: Pseudomonas aeruginosa ATCC 9027
[19] = tested on: Staphylococcus aureus ATCC 9144
Staphylococcus aureus = tested on: Staphylococcus aureus
[20] = tested on: Staphylococcus epidermidis
[21] = tested on: Streptococcus pneumoniae ATCC 49619
Streptococcus uberis = tested on: Streptococcus uberis
[22] = tested on: Pseudomonas aeruginosa 1.50
[23] = tested on: Staphylococcus aureus ATCC 2592

`CC[C@H](C)[C@H](NC(=O)[C@H](CC(N)=O)NC(=O)[C@H](CCCCN)NC(=O)[C@@H]1CSSC[C@@H]2NC(=O)[C@H](CCCCN)NC(=O)[C@H](CC(C)C)NC(=O)[C@H](Cc3ccccc3)NC(=O)CNC(=O)[C@@H]3CSSC[C@H](NC(=O)[C@H](CCCCN)NC(=O)CNC(=O)[C@H](CO)NC(=O)[C@H](C(C)C)NC(=O)[C@H](C(C)C)NC(=O)[C@H](Cc4ccccc4)NC(=O)[C@@H]4CCCN4C(=O)[C@H](Cc4ccccc4)NC(=O)[C@H](CO)NC2=O)C(=O)N[C@@H](CO)C(=O)N[C@@H](CCCN=C(N)N)C(=O)N[C@@H](Cc2ccccc2)C(=O)N[C@@H](Cc2ccccc2)C(=O)N[C@@H](Cc2ccccc2)C(=O)N[C@@H](CSSC[C@H](NC(=O)[C@H](CCC(=O)O)NC(=O)[C@H](C)NC(=O)[C@H](CCCCN)NC(=O)[C@H](CC(N)=O)NC(=O)CNC(=O)[C@@H]2CCCN2C(=O)[C@H](C)N)C(=O)N[C@@H](CCC(=O)O)C(=O)N[C@@H](CCCN=C(N)N)C(=O)N[C@@H](CCC(=O)O)C(=O)N[C@@H](CCCCN)C(=O)NCC(=O)N[C@@H](Cc2ccc(O)cc2)C(=O)N3)C(=O)N1)C(=O)N[C@@H](Cc1c[nH]c2ccccc12)C(=O)O` [APGNKAECEREKGYCGFLKCSFPFVVSGKCSRFFFCCKNIW] gave an MIC (Candida albicans 3153A) of 1.32 µM (≈ 6.19 µg/mL), an MIC (Escherichia coli O157:H7) of 0.205 µM (≈ 0.959 µg/mL) and an MIC [1] of 0.267 µM (≈ 1.25 µg/mL).
`CC[C@H](C)[C@H](NC(=O)[C@H](CCCCN)NC(=O)[C@@H]1CCCN1C(=O)[C@H](CC(C)C)NC(=O)[C@H](Cc1ccccc1)NC(=O)[C@H](CC(N)=O)NC(=O)[C@H](C)NC(=O)[C@H](C)NC(=O)[C@H](CC(C)C)NC(=O)CNC(=O)[C@H](C)NC(=O)[C@@H](NC(=O)[C@@H](NC(=O)[C@@H]1CCCN1C(=O)[C@H](CC(C)C)NC(=O)[C@@H](N)Cc1ccccc1)[C@@H](C)CC)C(C)C)C(=O)N[C@H](C(=O)N[C@H]1CSSC[C@@H](C(=O)O)NC(=O)[C@H](CCCCN)NC(=O)[C@H](CCCCN)NC(=O)[C@H]([C@@H](C)O)NC(=O)[C@H]([C@@H](C)CC)NC(=O)[C@H](CCCCN)NC1=O)C(C)C` [FLPIVAGLAANFLPKIVCKITKKC] was tested, and the MIC [2] was 9 µM (≈ 23.3 µg/mL), the MIC [3] was 150 µM (≈ 388 µg/mL) and the MIC [4] was 19 µM (≈ 49.1 µg/mL). The MIC [5] was 150 µM (≈ 388 µg/mL), the MIC [6] was 19 µM (≈ 49.1 µg/mL) and the MIC [7] was 1.2 µM (≈ 3.1 µg/mL). For the same compound, the MIC (Serratia rubidaea X01) was 19 µM (≈ 49.1 µg/mL), the MIC [8] was 9 µM (≈ 23.3 µg/mL) and the MIC [9] was 9 µM (≈ 23.3 µg/mL).
`CSCC[C@H](NC(=O)[C@H](CC(N)=O)NC(=O)[C@H](CCCN=C(N)N)NC(=O)[C@H](CCC(N)=O)NC(=O)[C@H](Cc1c[nH]c2ccccc12)NC(=O)[C@H](CCC(N)=O)NC(=O)[C@@H](N)Cc1ccccc1)C(=O)N[C@@H](CCCN=C(N)N)C(=O)N[C@@H](CCCCN)C(=O)N[C@H](C(=O)N[C@@H](CCCN=C(N)N)C(=O)O)C(C)C` [FQWQRNMRKVR] showed an MIC (Acinetobacter sp.) of 0.86 µM (≈ 1.33 µg/mL), an MIC [10] of at least 579 µM and an MIC [11] of at least 290 µM. The MIC (Klebsiella aerogenes) was at least 290 µM, the MIC (Klebsiella sp.) was at least 290 µM and the MIC (Proteus mirabilis) was at least 1000 µM. The MIC (Providencia stuartii) was at least 1000 µM and the MIC [12] was 14 µM (≈ 21.7 µg/mL).
`CC[C@H](C)[C@H](NC(=O)CNC(=O)[C@H](CO)NC(=O)[C@H](C)NC(=O)[C@H](CC(C)C)NC(=O)[C@H](CC(=O)O)NC(=O)CNC(=O)[C@H](C)NC(=O)[C@H](C)NC(=O)[C@H](CO)NC(=O)[C@H](CCCCN)NC(=O)[C@@H](NC(=O)[C@H](CCCCN)NC(=O)[C@H](CCC(N)=O)NC(=O)[C@H](Cc1c[nH]c2ccccc12)NC(=O)[C@H](CC(C)C)NC(=O)CN)[C@@H](C)CC)C(=O)N[C@H](C(=O)N[C@@H](CCC(=O)O)C(=O)N[C@@H](C)C(=O)N[C@H](C(=O)N[C@@H](CCCCN)C(=O)N[C@@H](CO)C(N)=O)[C@@H](C)CC)C(C)C` [GLWQKIKSAAGDLASGIVEAIKS] was tested, and the MIC (Escherichia coli) was 21.3 µM (≈ 50 µg/mL), the MIC (Micrococcus luteus) was 2.56 µM (≈ 6 µg/mL) and the MIC (Pseudomonas haemolytica) was 0.171 µM (≈ 0.4 µg/mL).
`CC[C@H](C)[C@H](NC(=O)CNC(=O)CNC(=O)[C@@H](N)CC(C)C)C(=O)N[C@H](C(=O)N[C@@H](CO)C(=O)N[C@@H](C)C(=O)N[C@H](C(=O)N[C@@H](CCCCN)C(=O)N[C@@H](CCCCN)C(=O)N[C@H](C(=O)N[C@H](C(=O)N[C@@H](CC(=O)O)C(=O)N[C@@H](Cc1ccccc1)C(=O)N[C@@H](CC(C)C)C(=O)NCC(N)=O)C(C)C)[C@@H](C)CC)C(C)C)C(C)C` [LGGIVSAVKKIVDFLG] was tested, and the MIC [13] was at least 158 µM, the MIC (Bacillus cereus) was at least 61.9 µM and the MIC [3] was 79.2 µM (≈ 128 µg/mL). For the same compound, the MIC [14] was at least 158 µM, the MIC [15] was at least 79.2 µM and the MIC [16] was at least 79.2 µM. It also gave an MIC [5] of 39.6 µM (≈ 64 µg/mL), an MIC (Escherichia coli) of over 61.9 µM and an MIC [17] of 19.8 µM (≈ 32 µg/mL). For the same compound, the MIC (Leuconostoc lactis) was 7.43 µM (≈ 12 µg/mL), the MIC (Listeria innocua) was at least 61.9 µM and the MIC (Micrococcus luteus) was at least 61.9 µM. The MIC (Pasteurella multocida) was at least 61.9 µM, the MIC [18] was over 158 µM and the MIC [8] was 39.6 µM (≈ 64 µg/mL). It also gave an MIC [19] of at least 39.6 µM, an MIC (Staphylococcus aureus) of 30.9 µM (≈ 50 µg/mL) and an MIC [20] of at least 61.9 µM. It also gave an MIC [21] of at least 79.2 µM and an MIC (Streptococcus uberis) of 30.9 µM (≈ 50 µg/mL).
In the case of `CC[C@H](C)[C@H](NC(=O)CNC(=O)[C@@H](NC(=O)CNC(=O)[C@H](C)NC(=O)CNC(=O)[C@H](CCCN=C(N)N)NC(=O)[C@H](C)NC(=O)[C@@H](NC(=O)CNC(=O)[C@H](CC(C)C)NC(=O)[C@H](C)NC(=O)[C@@H](NC(=O)[C@H](CC(N)=O)NC(=O)[C@H](CCCCN)NC(=O)[C@@H](NC(=O)[C@H](CCCCN)NC(=O)[C@H](CC(=O)O)NC(=O)[C@H](CC(C)C)NC(=O)[C@@H](NC(=O)[C@@H](N)CO)[C@@H](C)CC)[C@@H](C)CC)C(C)C)C(C)C)[C@@H](C)O)C(=O)N[C@@H](CC(C)C)C(=O)N[C@@H](CCCCN)C(=O)N[C@@H](C)C(=O)N[C@@H](CC(C)C)C(=O)N[C@@H](CC(C)C)C(=O)N[C@H]1CSSC[C@@H](C(=O)O)NC(=O)[C@H](CO)NC(=O)[C@H](CCCCN)NC(=O)[C@H](CC(=O)O)NC(=O)[C@H](CC(C)C)NC(=O)[C@H](CCCCN)NC1=O` [SILDKIKNVALGVARGAGTGILKALLCKLDKSC], the MIC [2] is reported as 3.8 µM (≈ 12.8 µg/mL), the MIC [5] is reported as 30 µM (≈ 101 µg/mL) and the MIC [22] is reported as 30 µM (≈ 101 µg/mL). It also gave an MIC [6] of 1.9 µM (≈ 6.4 µg/mL), an MIC [7] of 1.9 µM (≈ 6.4 µg/mL) and an MIC (Serratia rubidaea X01) of at least 60 µM. For the same compound, the MIC [23] was 3.8 µM (≈ 12.8 µg/mL) and the MIC [9] was 1.9 µM (≈ 6.4 µg/mL).
